Our source for the ΔG max and EC50 values is PMC12756865, “Inhibitory effect of oestradiol on the cardiac KV7.1/KCNE1 channel is species dependent” (Experimental Physiology, 2025).

Assay type in all cases: cell-based
One test addresses T1, human KV7.1/rabbit KCNE1 (Homo sapiens; Oryctolagus cuniculus, UniProt P51787+Q28705).
T1 construct: gene KCNQ1; cross-species complex of two intact wild-type subunits (no fusion): human KV7.1 and rabbit KCNE1 cRNAs co-injected in Xenopus laevis oocytes
The test can be described thus: two-electrode voltage clamp, Xenopus oocytes, change of Gmax. To be noted: 10 µM; inhibition; EC50 fit ambiguous; pH 7.4, about 20 °C; ethanol vehicle. From the text: two-electrode voltage clamp, Xenopus oocytes, change of Gmax on human KV7.1/rabbit KCNE1
For orientation: In two-electrode clamp one electrode senses voltage and the other passes current.

The target of the next test is T2, guinea pig KV7.1/KCNE1 (Cavia porcellus, UniProt A6Y9U2+Q60409).
T2 construct: gene KCNQ1; wild-type KV7.1 and KCNE1 cRNAs co-injected in Xenopus laevis oocytes; KCNE1 in excess; four KV7.1 with one to four KCNE1
The description is as above. To be noted: 3 µM; inhibition; EC50 fit ambiguous; pH 7.4, about 20 °C; ethanol vehicle. From the text: two-electrode voltage clamp, Xenopus oocytes, change of Gmax on guinea pig KV7.1/KCNE1

The target of a further test is T3, rabbit KV7.1/human KCNE1 (Oryctolagus cuniculus; Homo sapiens, UniProt P15382+Q9MYS6).
T3 construct: gene KCNQ1; cross-species complex of two intact wild-type subunits (no fusion): rabbit KV7.1 and human KCNE1 cRNAs co-injected in Xenopus laevis oocytes
T3 sequence (Q9MYS6 whole entry, the tested form may be a part): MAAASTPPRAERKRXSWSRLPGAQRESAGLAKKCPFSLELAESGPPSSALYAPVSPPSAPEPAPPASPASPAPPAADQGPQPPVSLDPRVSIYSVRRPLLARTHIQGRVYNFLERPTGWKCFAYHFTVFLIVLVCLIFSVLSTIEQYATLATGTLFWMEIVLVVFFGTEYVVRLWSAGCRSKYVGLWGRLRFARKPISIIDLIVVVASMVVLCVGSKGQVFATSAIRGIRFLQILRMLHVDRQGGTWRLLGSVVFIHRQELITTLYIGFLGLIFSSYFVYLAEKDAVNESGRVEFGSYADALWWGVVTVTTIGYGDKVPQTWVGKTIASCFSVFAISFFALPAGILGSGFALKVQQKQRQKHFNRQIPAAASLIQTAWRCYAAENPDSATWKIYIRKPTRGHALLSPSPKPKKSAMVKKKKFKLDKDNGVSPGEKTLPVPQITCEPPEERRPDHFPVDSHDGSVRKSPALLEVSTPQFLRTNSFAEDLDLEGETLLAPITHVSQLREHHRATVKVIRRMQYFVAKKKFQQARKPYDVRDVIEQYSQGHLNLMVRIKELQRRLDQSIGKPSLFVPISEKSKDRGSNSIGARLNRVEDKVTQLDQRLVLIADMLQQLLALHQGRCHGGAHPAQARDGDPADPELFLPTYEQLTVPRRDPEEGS
The test is described as above. To be noted: 10 µM; inhibition; EC50 fit ambiguous; pH 7.4, about 20 °C; ethanol vehicle. From the text:
two-electrode voltage clamp, Xenopus oocytes, change of Gmax on rabbit KV7.1/human KCNE1

The target of another test is T4, rabbit KV7.1/KCNE1 (Oryctolagus cuniculus, UniProt Q28705+Q9MYS6).
T4 construct: gene KCNQ1; wild-type KV7.1 and KCNE1 cRNAs co-injected in Xenopus laevis oocytes; KCNE1 in excess; four KV7.1 with one to four KCNE1
T4 sequence (Q9MYS6 whole entry): as the sequence (Q9MYS6 whole entry, the tested form may be a part) above
T4 sequence (Q28705 whole entry): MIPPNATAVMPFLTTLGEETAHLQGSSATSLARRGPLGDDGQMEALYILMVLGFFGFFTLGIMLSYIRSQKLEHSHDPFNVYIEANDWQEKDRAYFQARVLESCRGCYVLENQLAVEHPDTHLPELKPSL
In words: two-electrode voltage clamp, Xenopus oocytes, reduction of Gmax.

Test [1] concerns the target T5, human KV7.1/KCNE1 (tested as KV7.1/KCNE1_K69Q) (Homo sapiens, UniProt P15382+P51787, P15382:K69Q).
T5 construct: gene KCNQ1; KV7.1 and KCNE1 cRNAs co-injected in Xenopus laevis oocytes; KCNE1 in excess; four KV7.1 with one to four KCNE1
The test is described as above.

Each structure is given as a SMILES string.

T5 sequence (P51787 whole entry): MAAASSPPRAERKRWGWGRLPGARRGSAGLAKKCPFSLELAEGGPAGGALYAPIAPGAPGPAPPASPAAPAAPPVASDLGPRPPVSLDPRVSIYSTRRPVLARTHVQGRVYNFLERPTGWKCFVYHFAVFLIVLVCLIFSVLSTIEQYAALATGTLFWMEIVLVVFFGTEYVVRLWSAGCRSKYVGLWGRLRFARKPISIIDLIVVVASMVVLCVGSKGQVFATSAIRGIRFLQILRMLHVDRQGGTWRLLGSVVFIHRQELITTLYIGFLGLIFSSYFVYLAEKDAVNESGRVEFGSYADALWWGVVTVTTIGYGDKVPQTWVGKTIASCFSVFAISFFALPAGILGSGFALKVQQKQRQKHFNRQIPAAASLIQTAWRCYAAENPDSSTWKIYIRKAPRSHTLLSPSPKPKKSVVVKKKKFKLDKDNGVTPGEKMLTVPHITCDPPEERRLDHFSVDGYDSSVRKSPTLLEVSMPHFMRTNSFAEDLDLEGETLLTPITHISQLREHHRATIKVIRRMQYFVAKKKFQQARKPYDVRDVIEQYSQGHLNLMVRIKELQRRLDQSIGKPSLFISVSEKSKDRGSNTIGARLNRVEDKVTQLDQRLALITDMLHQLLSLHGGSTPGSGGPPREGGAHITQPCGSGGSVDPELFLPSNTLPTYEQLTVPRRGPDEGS
T1 sequence (P51787 whole entry, the tested form may be a part): as the sequence (P51787 whole entry) above
T1 sequence (Q28705 whole entry, the tested form may be a part): as the sequence (Q28705 whole entry) above

Broadly, the EC50 is the midpoint of the concentration-response curve. Higher therefore signals weaker potency. For `C[C@]12CC[C@@H]3c4ccc(O)cc4CC[C@H]3[C@@H]1CC[C@@H]2O` [17β‐E2], the ΔG max at human KV7.1/rabbit KCNE1 is on record as −77.8 ± 6.2 (SEM) %; on guinea pig KV7.1/KCNE1, −37.8 ± 3.7 (SEM) %; on rabbit KV7.1/human KCNE1, −91.9 ± 3.0 (SEM) %. Further, the values for the concentration giving a half-maximal response (EC50) (at rabbit KV7.1/KCNE1; in test [1]) were 230 nM and 2900 nM, respectively.
